Calls of active or inactive are those of the source. No cut-off for these calls is given here.
Species on record: Mus musculus
Assay: Antifibrotic activity against bleomycin-induced C57BL/6 mouse lung fibrosis model assessed as reduction in CD4-CD69+ T cell in lung incubated for 30 mins by flow cytometry analysis ( Rvb = 6.54%)
Type: functional
Design: scale not given: the % may be the effect or the level left
Conditions: 0.5 h

SMILES | Activity [%]
COC(=O)c1ccc2c(c1)NC(=O)/C2=C(\Nc1ccc(N(C)C(=O)CN2CCN(C)CC2)cc1)c1ccccc1 [NINTEDANIB] | 3.55

System: A549
Assay: Induction of morphological changes in TGF-beta1 induced human A549 cells assessed as appearance of spindle shape cells at 200 nM measured for 24 hrs by phase contrast microscopy analysis
Type: functional, cell-based
Conditions: not given

SMILES | Activity
O=[N+]([O-])c1ccc2c(c1)S(=O)(=O)C=C2 | Active

Species on record: Mus musculus
Assay: Antifibrotic activity against bleomycin-induced C57BL/6 mouse lung fibrosis model assessed as reduction in CD11c+MHC II+ in dendritic cells in lung incubated for 30 mins by flow cytometry analysis ( Rvb = 23.67 %)
Type: functional
Design: scale not given: the % may be the effect or the level left
Conditions: 0.5 h

SMILES | Activity [%]
COC(=O)c1ccc2c(c1)NC(=O)/C2=C(\Nc1ccc(N(C)C(=O)CN2CCN(C)CC2)cc1)c1ccccc1 [NINTEDANIB] | 20.61

System: NIH3T3
Assay: Antiproliferative activity against mouse NIH3T3 cells assessed as cell growth inhibition incubated for 24 to 72 hrs by CCK-8 assay
Type: functional, cell-based
Conditions: not given

SMILES | IC50 [µM]
O=C(C1=Cc2ccccc2S1(=O)=O)N1CCN(Cc2ccc(C(F)(F)F)o2)CC1 | 1.9
Cc1cccc(CN2CCN(C(=O)C3=Cc4ccccc4S3(=O)=O)CC2)c1 | 2.55
COS(=O)(=O)c1ccc(CN2CCN(C(=O)C3=Cc4ccccc4S3(=O)=O)CC2)cc1 | 0.93
O=C(C1=Cc2ccccc2S1(=O)=O)N1CCN(Cc2ccc3ccccc3c2)CC1 | 6.78
O=C(C1=Cc2ccccc2S1(=O)=O)N1CCN(Cc2ccc(S(=O)(=O)C(F)(F)F)cc2)CC1 | 1.79
O=C(CN1CCOCC1)NC1CCN(C(=O)C2=Cc3ccccc3S2(=O)=O)CC1 | 4.85
O=C(CC1CCCCC1)NC1CCN(C(=O)C2=Cc3ccccc3S2(=O)=O)CC1 | > 10
COC(=O)c1ccc2c(c1)NC(=O)/C2=C(\Nc1ccc(N(C)C(=O)CN2CCN(C)CC2)cc1)c1ccccc1 [NINTEDANIB] | 2.41
O=C(C1=Cc2ccccc2S1(=O)=O)N1CCN(C(=O)c2cccnc2N2CCOCC2)CC1 | 3.42
O=C(C1=Cc2ccccc2S1(=O)=O)N1CCN(C(=O)c2ccc(F)cn2)CC1 | 2.09
O=C(Cc1cccc([N+](=O)[O-])c1)NC1CCN(C(=O)C2=Cc3ccccc3S2(=O)=O)CC1 | > 10
O=C(C1=Cc2ccccc2S1(=O)=O)N1CCN(S(=O)(=O)c2cc(F)cc(F)c2)CC1 | 1.45
O=C(C1=Cc2ccccc2S1(=O)=O)N1CCN(Cc2ccc(C(F)(F)F)cc2)CC1 | 1.46
O=C(C1=Cc2ccccc2S1(=O)=O)N1CCN(Cc2cc(F)c(F)c(F)c2F)CC1 | 1.26
Cc1nc(C)c(C(=O)NC2CCN(C(=O)C3=Cc4ccccc4S3(=O)=O)CC2)nc1C | 2.13
COc1ccc(CN2CCN(C(=O)C3=Cc4ccccc4S3(=O)=O)CC2)cc1 | 1.78
CN(C)c1ccc(CC(=O)NC2CCN(C(=O)C3=Cc4ccccc4S3(=O)=O)CC2)cc1 | > 10
O=C(C1=Cc2ccccc2S1(=O)=O)N1CCN(C(=O)c2cc3ccccc3o2)CC1 | 1.22
O=C(C1=Cc2ccccc2S1(=O)=O)N1CCN(S(=O)(=O)c2ccc3ccccc3c2)CC1 | > 10
O=C(C1=Cc2ccccc2S1(=O)=O)N1CCN(Cc2ccc(-c3ccccc3)cc2)CC1 | 6.47
O=C(C1=Cc2ccccc2S1(=O)=O)N1CCN(S(=O)(=O)C2CCCCC2)CC1 | 8.92
COC(=O)c1ccc(CN2CCN(C(=O)C3=Cc4ccccc4S3(=O)=O)CC2)cc1OC | 1.24
COc1cc(CN2CCN(C(=O)C3=Cc4ccccc4S3(=O)=O)CC2)cc(OC)c1 | 1.11
Cc1noc(C)c1S(=O)(=O)N1CCN(C(=O)C2=Cc3ccccc3S2(=O)=O)CC1 | 1.47
CC(C)(C)OC(=O)n1cc(CN2CCN(C(=O)C3=Cc4ccccc4S3(=O)=O)CC2)c2ccccc21 | 5.12

SMILES | IC50 [µM]
Cc1ccc(CN2CCN(C(=O)C3=Cc4ccccc4S3(=O)=O)CC2)cc1 | 1.66
O=C(C1=Cc2ccccc2S1(=O)=O)N1CCN(Cc2ccccc2F)CC1 | 1
O=C(C1=Cc2ccccc2S1(=O)=O)N1CCN(C(=O)c2ccc(N3CCOCC3)nc2)CC1 | 2.49
O=C(C1=Cc2ccccc2S1(=O)=O)N1CCN(S(=O)(=O)c2ccc3c(c2)CCO3)CC1 | 8.89
O=C(CC1CCCC1)NC1CCN(C(=O)C2=Cc3ccccc3S2(=O)=O)CC1 | > 10
O=C(C1=Cc2ccccc2S1(=O)=O)N1CCN(Cc2cccc(C(F)(F)F)c2)CC1 | 1.32
O=C(C1=Cc2ccccc2S1(=O)=O)N1CCN(Cc2cccc(F)c2)CC1 | 0.95
O=C(C1=Cc2ccccc2S1(=O)=O)N1CCN(C(=O)c2cc(F)c(F)cc2F)CC1 | 0.87
O=C(Cc1ccccc1[N+](=O)[O-])NC1CCN(C(=O)C2=Cc3ccccc3S2(=O)=O)CC1 | > 10
O=C(C1=Cc2ccccc2S1(=O)=O)N1CCN(C(=O)c2cccnc2)CC1 | 8.45
O=[N+]([O-])c1ccc2c(c1)S(=O)(=O)C=C2 | 1.18
O=C(C1=Cc2ccccc2S1(=O)=O)N1CCN(Cc2ccc(Cl)cc2)CC1 | 2.01
O=C(C1=Cc2ccccc2S1(=O)=O)N1CCN(C(=O)c2ccccn2)CC1 | 6.02
O=C(Cc1cccc(C2CC2)c1)N1CCN(C(=O)C2=Cc3ccccc3S2(=O)=O)CC1 | 1.75
O=C(C1=Cc2ccccc2S1(=O)=O)N1CCN(Cc2c(F)c(F)c(F)c(F)c2F)CC1 | 1.29
COC(=O)c1cccc(CN2CCN(C(=O)C3=Cc4ccccc4S3(=O)=O)CC2)c1 | 1.4
O=C(Cc1cccc2c1CCO2)NC1CCN(C(=O)C2=Cc3ccccc3S2(=O)=O)CC1 | 3.98
COC(=O)c1ccc(CN2CCN(C(=O)C3=Cc4ccccc4S3(=O)=O)CC2)cc1 | 0.63
O=C(NC1CCN(C(=O)C2=Cc3ccccc3S2(=O)=O)CC1)c1ccc(Cl)cc1 | 6.26
CC(C)(C)OC(=O)N1CCOC(C(=O)N2CCN(C(=O)C3=Cc4ccccc4S3(=O)=O)CC2)C1 (centres undefined) | 5.23
COC(=O)c1sccc1S(=O)(=O)N1CCN(C(=O)C2=Cc3ccccc3S2(=O)=O)CC1 | 4.48
O=C(NC1CCN(C(=O)C2=Cc3ccccc3S2(=O)=O)CC1)c1cccc(Cl)c1 | 6.76
O=C(C1=Cc2ccccc2S1(=O)=O)N1CCN(C(=O)c2scnc2Br)CC1 | 0.81
O=C(C1=Cc2ccccc2S1(=O)=O)N1CCN(S(=O)(=O)c2cccs2)CC1 | 3.87

System: A549
Assay: Inhibition of cell migration in TGF-beta1 induced human A549 cells measured for 24 hrs by contrast-phase microscopic analysis
Type: functional, cell-based
Conditions: not given

SMILES | inhibition
O=[N+]([O-])c1ccc2c(c1)S(=O)(=O)C=C2 | Active

Species on record: Mus musculus
Assay: Antifibrotic activity against bleomycin-induced C57BL/6 mouse lung fibrosis model assessed as reduction in F4/80+CD11b+ macrophage in lung incubated for 30 mins by flow cytometry analysis ( Rvb = 17.96%)
Type: functional
Design: scale not given: the % may be the effect or the level left
Conditions: 0.5 h

SMILES | Activity [%]
COC(=O)c1ccc2c(c1)NC(=O)/C2=C(\Nc1ccc(N(C)C(=O)CN2CCN(C)CC2)cc1)c1ccccc1 [NINTEDANIB] | 12.36

Reference: ChEMBL document CHEMBL5352461, “Discovery of the novel Benzo[b]thiophene 1,1-dioxide derivatives as a potent STAT3 inhibitor against idiopathic pulmonary fibrosis” (Eur J Med Chem, 2023)
